Laboratory results as given in patent US20210252094A1, “COMPOSITION FOR IMPROVING SLEEP DISORDERS CAUSED BY CAFFEINE CONTAINING CITRUS RIND EXTRACT” (NOAHS CO., LTD., priority 2018, published 2021).
Entries after “also recorded” stand apart in the source; their conditions may differ.

Test system: brain hippocampal slices
Assay: Measurement of neural activity of cultured hippocampal slices on microelectrode array (MEA), caffeine-induced
Type: cell-based, Sprague Dawley white young rat
Conditions: for neural activity after washing: 1 mM caffeine plus sample (extract 400 μg/ml, hesperidin 40 μg/ml, narirutin 136 μg/ml), then washed 20 min with artificial cerebrospinal fluid only; for degree of neural activity compared to treatment of caffeine alone: perfused 20 min with 1 mM caffeine plus sample (citrus unshiu peel extract 400 μg/ml, hesperidin 40 μg/ml, narirutin 136 μg/ml), before washing
Description: A method of organotypic culturing of slices of the brain hippocampus using a thin film used an already commonly used method. Specifically, the brain hippocampus was extracted from a Sprague Dawley white young rat (Orientbio Co., Seungnam, Korea) of 5- to 7-day old, and sliced to a thickness of 350 μm using a tissue slicer (Mickle Laboratory Engineering Co., UK). After 5 to 6 slices were disposed into a thin film insert (Millicell-CM; Millipore, MA) with 0.4-μm holes, put in a 6-well plate (SPL Life Sciences Co., Korea), and then cultured in an incubator kept with 5% CO2 at 36° C. (Dong-A Co., Seoul, Korea). A culture solution (MEM; Welgene, Gyeongsan, South Korea), 20 mM HEPES (Sigma, St. Louis, Mo., USA), a 25% Hank's balanced salt solution (HBSS; Welgene, Gyeongsan, South Korea), 6 g/L D-glucose (Sigma, St. Louis, Mo., USA), 1 mM L-glutamine (Sigma, St. Louis, Mo., USA), 25% horse serum (Welgene, Gyeongsan, South Korea), and 1% penicillin-streptomycin (Gibco BRL, USA), pH=7.1) were changed once every two days, and the culture period was 12 to 14 days, and then used in a subsequent experiment (FIG. 5). After the cultured brain hippocampal slices were carefully isolated from the cultured thin film insert using a pin, the brain hippocampal slices were placed on a 8×8 microelectrode array (MEA; Multi Channel Systems, Germany) with a diameter of 10 μm and an interval of 100 μm coated with 0.01% polyethyleneimine (Sigma, St. Louis, Mo., USA). […] Thereafter, the MEA containing the brain hippocampus was mounted on an amplification device MEA1060 (Multi Channel Systems Inc., Reutlingen, Germany), and the artificial spinal cord solution in the MEA was grounded with Ag/AgCl. During the subsequent experiment, the artificial spinal cord solution into which the 5% CO2 and 95% 02 mixed gas was added was perfused at a rate of 3 mL/min, and the MEA and the artificial spinal cord solution were maintained at 33° C. (FIG. 6) . […] The MEA with the hippocampal tissue read data at a sampling rate of 25 kHz for each channel through a total of 60 channels, and was recorded through a computer using MC_Rack and MC_Data Tool (Multi Channel Systems, GmbH) software. A 4-stage band pass filter was used to extract meaningful spikes from all recorded signals, and Equation is as follows. Wherein, X represents a root mean square (RMS) for noise, and k is a factor that determines each threshold. Here, the threshold consisted of a total of three factors (0.6, 1 and 3). […] This process was performed using a MATLAB (Mathworks Inc., Natick, Massachusetts, USA) program for all 60 channels (FIG. 7).

Compound	increase of neural activity after washing (1 mM caffeine alone, after washing) [%]	neural activity after washing	degree of neural activity compared to treatment of caffeine alone
Cn1c(=O)c2c(ncn2C)n(C)c1=O [caffeine, 1,3,7-trimetnylxanthine]	≥ 200	–	–
COc1ccc([C@@H]2CC(=O)c3c(O)cc(O[C@@H]4O[C@H](CO[C@@H]5O[C@@H](C)[C@H](O)[C@@H](O)[C@H]5O)[C@@H](O)[C@H](O)[C@H]4O)cc3O2)cc1O [hesperidin]	–	maintained without a significant increase; also recorded: neural activity inhibitory effect persisted	significantly reduced
C[C@@H]1O[C@@H](OC[C@H]2O[C@@H](Oc3cc(O)c4c(c3)O[C@H](c3ccc(O)cc3)CC4=O)[C@H](O)[C@@H](O)[C@@H]2O)[C@H](O)[C@H](O)[C@H]1O [narirutin]	–	maintained without a significant increase; also recorded: neural activity inhibitory effect persisted	significantly reduced
